Assay results: patent US20240148821A1, “PHARMACEUTICAL USE OF CYCLIC PEPTIDE COMPOUND” (CHUGAI SEIYAKU KABUSHIKI KAISHA, priority 2021, published 2024)
Numbered stars: 1 amine (or outer) side, 2 acyl side, 3 side chain; on linkers, the order of the positions; unused ones are H or OH. Bridge positions count the residues as written; N and C are the ends. Square brackets hold non-standard residues; d marks the D form. Peptide text beside a SMILES is read from it. * marks the point of attachment. hPhe(3-Cl-4-CF3) = N[C@@H](CCc1ccc(C(F)(F)F)c(Cl)c1)C(=O)O; hPhe(3-F,4-CF3) = N[C@@H](CCc1ccc(C(F)(F)F)c(F)c1)C(=O)O; NMePhe(4-Cl) = CN[C@@H](Cc1ccc(Cl)cc1)C(=O)O; X51 = CN([C@@](C)(Cc1ccccc1)C(=O)[*:2])[*:1]; NMePhe(4-Me) = CN[C@@H](Cc1ccc(C)cc1)C(=O)O; NMeMet(O2) = CN[C@@H](CCS(C)(=O)=O)C(=O)O; NMedβ3hAla = C[C@H](CC(=O)[*:2])N(C)[*:1]; X79 = O=C([C@H](Cc1ccc(Cl)s1)N[*:1])[*:2]; NMeGly(cPent) = CN[C@H](C(=O)O)C1CCCC1; Phe(3-I) = N[C@@H](Cc1cccc(I)c1)C(=O)O; dβ3hPip = O=C(C[C@H]1CCCCN1[*:1])[*:2]; NMeY = CN[C@@H](Cc1ccc(O)cc1)C(=O)O; NMeCha = CN[C@@H](CC1CCCCC1)C(=O)O; NMeChg = CN[C@H](C(=O)O)C1CCCCC1; NMeD = CN[C@@H](CC(=O)O)C(=O)O; NMeL = CN[C@@H](CC(C)C)C(=O)O; Chg = N[C@H](C(=O)O)C1CCCCC1; NMeV = CN[C@H](C(=O)O)C(C)C; d(β3hA) = C[C@@H](N)CC(=O)O; NMeA = CN[C@@H](C)C(=O)O; NMeAib = CNC(C)(C)C(=O)O; Nle = CCCC[C@H](N)C(=O)O; Piperidide = C1CCN(*)CC1; Ac5c = NC1(C(=O)O)CCCC1; Aze = O=C(O)[C@@H]1CCN1; NEtG = CCNCC(=O)O; βAla = NCCC(=O)O; Sar = CNCC(=O)O

These compounds were tested on Human pancreatic cancer cell line AsPC-1 (G12D mutation Kras) (assay: AsPC-1 cell growth inhibition (AsPC-1 CGI)). Details: read-out: AsPC-1 cell growth inhibition, 50% growth inhibitory concentration (IC50 value); 96 hours, CellTiter-Glo, values classified in ranges.
Format: cell-based
Procedure: Test compounds were serially dilated with dimethyl sulfoxide, and 200 nL was then dispensed to a U-bottom 96-well plate using Labcyte Echo. […] The cell suspension was dispensed to a. plate containing a test compound at 100 μL per well and incubated at 37° C. in a 5% carbon dioxide gas incubator. 96 hours later, 80 μL of CellTiter-Glo (Promega) was added to each well and fluorescence was measured.

| Structure (SMILES) | IC50 [nM] |
| --- | --- |
| CC[C@H](C)[C@@H]1NC(=O)[C@H](CC(C)C)N(C)C(=O)C[C@@H](C)N(C)C(=O)[C@H](CC(C)C)NC(=O)C(C)(C)N(C)C(=O)[C@H](C2CCCCC2)NC(=O)[C@H](CCc2ccc(C(F)(F)F)c(F)c2)NC(=O)CN(C)C(=O)[C@H](Cc2ccc(Cl)cc2)N(C)C(=O)CN(C)C(=O)CN(C)C1=O [Compound 772] (cyclo([Chg][NMeAib]L[NMedβ3hAla][NMeL]I[Sar][Sar][NMePhe(4-Cl)][Sar][hPhe(3-F,4-CF3)])) | > 500 |
| CC[C@H](C)[C@@H]1NC(=O)[C@H](CC(C)C)N(C)C(=O)C[C@@H](C)NC(=O)[C@H](C2CCCC2)N(C)C(=O)C2(CCCC2)NC(=O)[C@@H](C)NC(=O)[C@H](CCc2ccc(C(F)(F)F)c(Cl)c2)NC(=O)CN(C)C(=O)[C@H](Cc2ccc(C)cc2)N(C)C(=O)[C@@H]2CCN2C(=O)[C@H](C)N(C)C1=O [Compound 1328] (cyclo([Ac5c][NMeGly(cPent)][d(β3hA)][NMeL]I[NMeA][Aze][NMePhe(4-Me)][Sar][hPhe(3-Cl-4-CF3)][dA])) | > 500 |
| CC[C@H](C)[C@@H]1NC(=O)[C@H](CC(C)C)N(C)C(=O)C[C@@H](C(=O)N2CCCCC2)N(C)C(=O)[C@H](C(C)C)NC(=O)C2(CCCC2)NC(=O)[C@@H]2CCCN2C(=O)[C@H](CCc2ccc(C(F)(F)F)c(Cl)c2)NC(=O)CN(C)C(=O)[C@H](CC2CCCCC2)N(C)C(=O)[C@@H]2CCN2C(=O)[C@H](C)N(C)C1=O [Compound 1106] ([NMeL]I[NMeA][Aze][NMeCha][Sar][hPhe(3-Cl-4-CF3)]P[Ac5c]V[NMeD]-Piperidide; lactam N-11) | > 500 |
| CC[C@H](C)[C@@H]1NC(=O)[C@H](CC(C)C)N(C)C(=O)C[C@@H](C(=O)N2CCCCC2)N(C)C(=O)[C@H](C2CCCCC2)N(C)C(=O)C2(CCCC2)NC(=O)[C@@H]2CCCN2C(=O)[C@H](CCc2ccc(C(F)(F)F)c(Cl)c2)NC(=O)CN(C)C(=O)[C@H](CCS(C)(=O)=O)N(C)C(=O)CN(C)C(=O)CN(C)C1=O [Compound 1094] ([NMeL]I[Sar][Sar][NMeMet(O2)][Sar][hPhe(3-Cl-4-CF3)]P[Ac5c][NMeChg][NMeD]-Piperidide; lactam N-11) | > 500 |
| CC[C@H](C)[C@@H]1NC(=O)[C@H](CC(C)C)N(C)C(=O)C[C@H]2CCCCN2C(=O)[C@H](C(C)C)N(C)C(=O)C2(CCCC2)NC(=O)[C@@H]2CCCN2C(=O)[C@H](CCc2ccc(C(F)(F)F)c(F)c2)NC(=O)CN(C)C(=O)[C@H](CC2CCCCC2)N(C)C(=O)CN(C)C(=O)CN(C)C1=O [Compound 142] (cyclo([Ac5c][NMeV][dβ3hPip][NMeL]I[Sar][Sar][NMeCha][Sar][hPhe(3-F,4-CF3)]P)) | > 500 |
| CC[C@H](C)[C@@H]1NC(=O)[C@H](CC(C)C)N(C)C(=O)C[C@@H](C)NC(=O)[C@H](CC(C)C)N(C)C(=O)C2(CCCC2)NC(=O)[C@@H]2CCCN2C(=O)[C@H](CCc2ccc(C(F)(F)F)c(F)c2)NC(=O)CN(C)C(=O)[C@H](CC2CCCCC2)N(C)C(=O)CN(C)C(=O)CN(C)C1=O [Compound 402] (cyclo([Ac5c][NMeL][d(β3hA)][NMeL]I[Sar][Sar][NMeCha][Sar][hPhe(3-F,4-CF3)]P)) | > 500 |
| CCCC[C@@H]1NC(=O)[C@H](Cc2cccc(I)c2)NC(=O)CN(C)C(=O)[C@H](Cc2ccc(OC)cc2)N(C)C(=O)CN(C)C(=O)CN(C)C(=O)[C@H]([C@@H](C)CC)NC(=O)[C@H](CC(C)C)N(C)C(=O)C[C@@H](C(=O)N2CCCCC2)N(C)C(=O)[C@H](CC(C)C)NC(=O)[C@](C)(Cc2ccccc2)N(C)C1=O [Compound 125] ([NMeL]I[Sar][Sar][NMeY](Me)[Sar][Phe(3-I)][Nle][X51]L[NMeD]-Piperidide; lactam N-11) | > 500 |
| CC[C@H](C)[C@@H]1NC(=O)[C@H](CC(C)C)N(C)C(=O)CCNC(=O)[C@H](C(C)C)N(C)C(=O)C2(CCCC2)NC(=O)[C@@H]2CCCN2C(=O)[C@H](CCc2ccc(C(F)(F)F)c(Cl)c2)NC(=O)CN(C)C(=O)[C@H](CC2CCCCC2)N(C)C(=O)CN(C)C(=O)CN(C)C1=O [Compound 979] (cyclo([Ac5c][NMeV][βAla][NMeL]I[Sar][Sar][NMeCha][Sar][hPhe(3-Cl-4-CF3)]P)) | > 500 |
| CCCC[C@@H]1NC(=O)[C@H](Cc2ccc(Cl)s2)NC(=O)CN(C)C(=O)[C@H](Cc2ccc(Cl)cc2)N(C)C(=O)CN(C)C(=O)CN(C)C(=O)[C@H]([C@@H](C)CC)NC(=O)[C@H](CC(C)C)N(C)C(=O)C[C@@H](C(=O)N2CCCCC2)N(C)C(=O)[C@H](CC(C)C)NC(=O)C(C)(C)N(C)C1=O [Compound 1318] ([NMeL]I[Sar][Sar][NMePhe(4-Cl)][Sar][X79][Nle][NMeAib]L[NMeD]-Piperidide; lactam N-11) | > 500 |
| CC[C@H](C)[C@@H]1NC(=O)[C@H](CC(C)C)N(C)C(=O)C[C@@H](C)NC(=O)[C@H](C(C)C)N(C)C(=O)C2(CCCC2)NC(=O)[C@@H]2CCCN2C(=O)[C@H](CCc2ccc(C(F)(F)F)c(Cl)c2)NC(=O)CN(C)C(=O)[C@H](CC2CCCCC2)N(C)C(=O)CN(CC)C(=O)CN(C)C1=O [Compound 504] (cyclo([Ac5c][NMeV][d(β3hA)][NMeL]I[Sar][NEtG][NMeCha][Sar][hPhe(3-Cl-4-CF3)]P)) | > 500 |
